# Biological target: T1, CK1α (Homo sapiens, UniProt P48729)
# T1 construct: HEK293 clonal lines with CRISPR KI HiBiT tag on CSNK1A1
# Test: CK1α NanoBit Assay (HiBiT-tagged CSNK1A1, HEK293 clonal lines)
# Type: cell-based
# Settings: HEK293 HiBiT-CSNK1A1/LgBiT cells, 24 h incubation
# Method: HEK293 clonal lines with CRISPR KI HiBiT tag on CSNK1A1 and stably expressing LgBiT protein were obtained from Promega (Madison, WI). […] Cells were incubated at 37° C., 5% CO2 for 24 hours and then signal was read on a Pherastar FSX using “LUM plus” optic module.
# Data analysis was performed in Scinamic (Scinamic, Cambridge, MA). Luminescence response (R) was calculated by the formula: response=100*(S−N)/(P−N) where S is the signal of the well, N and P the mean negative and positive control values respectively of the same plate.
# DC50 data are reported in Table 2 for compounds in Table 1. In Table 2 below, According to the code, A represents a DC50 value of ≤0.1 μM, B represents a DC50 value>0.1 μM and ≤1 μM, C represents an DC50 value>1 μM.
# T1 sequence (P48729 whole entry): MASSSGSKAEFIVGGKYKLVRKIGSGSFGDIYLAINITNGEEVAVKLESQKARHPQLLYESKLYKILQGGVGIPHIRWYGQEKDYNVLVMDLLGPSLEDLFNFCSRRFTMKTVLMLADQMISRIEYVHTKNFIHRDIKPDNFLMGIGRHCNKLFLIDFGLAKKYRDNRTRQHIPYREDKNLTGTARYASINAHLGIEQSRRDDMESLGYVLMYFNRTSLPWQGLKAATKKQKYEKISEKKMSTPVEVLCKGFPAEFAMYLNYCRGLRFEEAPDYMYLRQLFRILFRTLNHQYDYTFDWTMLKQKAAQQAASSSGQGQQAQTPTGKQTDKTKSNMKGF
# T1 sequence (Q96SW2 whole entry, further chain): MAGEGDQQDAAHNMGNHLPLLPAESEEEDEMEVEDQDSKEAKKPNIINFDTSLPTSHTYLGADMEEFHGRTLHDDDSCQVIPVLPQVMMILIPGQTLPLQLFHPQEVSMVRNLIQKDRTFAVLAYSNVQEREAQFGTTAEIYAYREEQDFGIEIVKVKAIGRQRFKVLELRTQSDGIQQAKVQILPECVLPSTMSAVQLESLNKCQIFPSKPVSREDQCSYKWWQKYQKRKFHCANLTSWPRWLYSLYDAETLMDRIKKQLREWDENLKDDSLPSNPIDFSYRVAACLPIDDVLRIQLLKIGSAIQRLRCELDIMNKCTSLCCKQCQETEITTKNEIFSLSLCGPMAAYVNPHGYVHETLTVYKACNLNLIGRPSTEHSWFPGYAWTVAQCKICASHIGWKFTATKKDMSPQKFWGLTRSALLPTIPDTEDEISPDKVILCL
# T1 sequence (Q16531 2-1140 partner limits assumed): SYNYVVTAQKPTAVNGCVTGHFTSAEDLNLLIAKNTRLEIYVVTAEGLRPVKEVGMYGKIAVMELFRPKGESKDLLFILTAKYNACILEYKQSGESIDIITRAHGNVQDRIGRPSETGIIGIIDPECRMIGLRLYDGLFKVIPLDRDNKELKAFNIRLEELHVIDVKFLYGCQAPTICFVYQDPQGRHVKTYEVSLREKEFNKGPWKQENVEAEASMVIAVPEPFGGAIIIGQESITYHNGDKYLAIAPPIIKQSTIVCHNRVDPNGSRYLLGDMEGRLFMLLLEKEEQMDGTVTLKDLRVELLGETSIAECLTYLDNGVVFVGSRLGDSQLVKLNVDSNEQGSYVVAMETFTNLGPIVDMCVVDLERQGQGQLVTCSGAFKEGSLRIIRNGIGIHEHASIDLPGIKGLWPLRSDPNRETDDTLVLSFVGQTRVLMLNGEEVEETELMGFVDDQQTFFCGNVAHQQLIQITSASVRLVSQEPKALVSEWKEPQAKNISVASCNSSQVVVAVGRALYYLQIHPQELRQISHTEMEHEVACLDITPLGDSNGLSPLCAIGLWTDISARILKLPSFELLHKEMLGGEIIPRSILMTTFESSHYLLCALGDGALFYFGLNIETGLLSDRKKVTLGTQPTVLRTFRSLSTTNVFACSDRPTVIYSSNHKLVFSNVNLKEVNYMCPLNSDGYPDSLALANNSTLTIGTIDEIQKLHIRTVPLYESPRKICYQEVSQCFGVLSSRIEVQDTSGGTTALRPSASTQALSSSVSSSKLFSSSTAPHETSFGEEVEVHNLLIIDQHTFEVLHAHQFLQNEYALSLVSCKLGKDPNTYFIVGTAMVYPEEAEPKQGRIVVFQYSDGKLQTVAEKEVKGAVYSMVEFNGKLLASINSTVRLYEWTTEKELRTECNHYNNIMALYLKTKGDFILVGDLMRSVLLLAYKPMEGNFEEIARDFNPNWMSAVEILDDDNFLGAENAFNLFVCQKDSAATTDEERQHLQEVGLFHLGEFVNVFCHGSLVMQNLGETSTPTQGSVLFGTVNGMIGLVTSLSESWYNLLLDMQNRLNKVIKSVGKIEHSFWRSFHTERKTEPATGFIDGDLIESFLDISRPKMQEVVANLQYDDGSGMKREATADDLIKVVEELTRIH
row,Structure (SMILES),DC50 [µM]
1,O=C1CCC(N2Cc3cc(NC(=O)N4CCc5cnccc5C4)ccc3C2=O)C(=O)N1 (centres unmarked) [Compound 207],> 1
2,Cn1cc(C2CCN(C(=O)Nc3ccc4c(c3)CN(C3CCC(=O)NC3=O)C4=O)C2)cn1 (centres unmarked) [Compound 222],> 1
3,O=C1CCC(N2Cc3cc(NC(=O)N4CCC(c5cnccn5)C4)ccc3C2=O)C(=O)N1 (centres unmarked) [Compound 223],> 1
4,Cc1cccc(C2(O)CN(C(=O)Nc3ccc4c(c3)CN(C3CCC(=O)NC3=O)C4=O)C2)c1 (centres unmarked) [Compound 225],> 1
5,O=C1CCC(N2Cc3cc(NC(=O)N4CCC(c5ncccn5)C4)ccc3C2=O)C(=O)N1 (centres unmarked) [Compound 229],> 1
6,O=C1CCC(N2Cc3cc(NC(=O)N4CCN(C56CC(C5)C6)CC4)ccc3C2=O)C(=O)N1 (centres unmarked) [Compound 234],> 1
7,O=C1CCC(N2Cc3cc(NC(=O)N4CC(CC(F)F)(c5ccccc5)C4)ccc3C2=O)C(=O)N1 (centres unmarked) [Compound 237],0.1 to 1
8,O=C1CCC(N2Cc3cc(NC(=O)N4CC(c5cccc(F)c5)C4)ccc3C2=O)C(=O)N1 (centres unmarked) [Compound 238],0.1 to 1
9,O=C1CCC(N2Cc3cc(NC(=O)N4CCC(c5ccc(F)cn5)C4)ccc3C2=O)C(=O)N1 (centres unmarked) [Compound 239],0.1 to 1
10,O=C1CCC(N2Cc3cc(NC(=O)N4C[C@@H]5C[C@]5(C(F)F)C4)ccc3C2=O)C(=O)N1 (some centres unmarked) [Compound 240],0.1 to 1
11,O=C1CCC(N2Cc3cc(NC(=O)N4CC(c5cccc(C(F)(F)F)c5)C4)ccc3C2=O)C(=O)N1 (centres unmarked) [Compound 241],0.1 to 1
12,O=C1CCC(N2Cc3cc(NC(=O)N4CCN(c5nccs5)CC4)ccc3C2=O)C(=O)N1 (centres unmarked) [Compound 242],> 1
13,Cn1cc(N2CCN(C(=O)Nc3ccc4c(c3)CN(C3CCC(=O)NC3=O)C4=O)CC2)cn1 (centres unmarked) [Compound 243],> 1
14,N#Cc1ccc(C2CN(C(=O)Nc3ccc4c(c3)CN(C3CCC(=O)NC3=O)C4=O)C2)cc1 (centres unmarked) [Compound 244],0.1 to 1
15,O=C1CCC(N2Cc3cc(NC(=O)N4C[C@H](c5ccccc5)[C@H]4CO)ccc3C2=O)C(=O)N1 (some centres unmarked) [Compound 245],0.1 to 1
16,Cc1ccnc(C2CCN(C(=O)Nc3ccc4c(c3)CN(C3CCC(=O)NC3=O)C4=O)CC2)n1 (centres unmarked) [Compound 246],> 1
17,O=C1CCC(N2Cc3cc(NC(=O)N4CCC(c5nccs5)C4)ccc3C2=O)C(=O)N1 (centres unmarked) [Compound 247],0.1 to 1
18,O=C1CCC(N2Cc3cc(NC(=O)N4CCN(c5cccnc5)CC4)ccc3C2=O)C(=O)N1 (centres unmarked) [Compound 249],> 1
19,Cn1nccc1C1CCCN(C(=O)Nc2ccc3c(c2)CN(C2CCC(=O)NC2=O)C3=O)C1 (centres unmarked) [Compound 250],> 1

row,Structure (SMILES),DC50 [µM]
1,O=C1CCC(N2Cc3cc(NC(=O)N4CCC(O)CC4)ccc3C2=O)C(=O)N1 (centres unmarked) [Compound 251],> 1
2,CCC1(c2ccccc2)CN(C(=O)Nc2ccc3c(c2)CN(C2CCC(=O)NC2=O)C3=O)C1 (centres unmarked) [Compound 252],0.1 to 1
3,O=C1CCC(N2Cc3cc(NC(=O)N4CCN(c5cnccn5)CC4)ccc3C2=O)C(=O)N1 (centres unmarked) [Compound 254],> 1
4,CC1CN(c2ccccc2)CCN1C(=O)Nc1ccc2c(c1)CN(C1CCC(=O)NC1=O)C2=O (centres unmarked) [Compound 257],0.1 to 1
5,CC1(c2ccccc2F)CN(C(=O)Nc2ccc3c(c2)CN(C2CCC(=O)NC2=O)C3=O)C1 (centres unmarked) [Compound 258],0.1 to 1
6,CC1(c2ccccc2)CCCN(C(=O)Nc2ccc3c(c2)CN(C2CCC(=O)NC2=O)C3=O)C1 (centres unmarked) [Compound 259],0.1 to 1
7,O=C1CCC(N2Cc3cc(NC(=O)N4CCCC(O)C4)ccc3C2=O)C(=O)N1 (centres unmarked) [Compound 262],> 1
8,O=C1CCC(N2Cc3cc(NC(=O)N4CCC(c5ccccn5)C4)ccc3C2=O)C(=O)N1 (centres unmarked) [Compound 263],0.1 to 1
9,Cc1cccc(N2CCN(C(=O)Nc3ccc4c(c3)CN(C3CCC(=O)NC3=O)C4=O)CC2)c1 (centres unmarked) [Compound 265],0.1 to 1
10,O=C1CCC(N2Cc3cc(NC(=O)N4CCN(c5ccncn5)CC4)ccc3C2=O)C(=O)N1 (centres unmarked) [Compound 266],> 1
11,Cn1ccc(C2CCCN(C(=O)Nc3ccc4c(c3)CN(C3CCC(=O)NC3=O)C4=O)C2)n1 (centres unmarked) [Compound 267],0.1 to 1
12,O=C1CCC(N2Cc3cc(NC(=O)N4CCCC4c4ccccn4)ccc3C2=O)C(=O)N1 (centres unmarked) [Compound 270],0.1 to 1
13,O=C1CCC(N2Cc3cc(NC(=O)N4CCN(c5ccccn5)CC4)ccc3C2=O)C(=O)N1 (centres unmarked) [Compound 271],0.1 to 1
14,O=C1CCC(N2Cc3cc(NC(=O)N4CCN(c5ncccn5)CC4)ccc3C2=O)C(=O)N1 (centres unmarked) [Compound 272],0.1 to 1
15,O=C1CCC(N2Cc3cc(NC(=O)N4CCC5(CC5)C4)ccc3C2=O)C(=O)N1 (centres unmarked) [Compound 274],0.1 to 1
16,C[C@@H]1CCN(C(=O)Nc2ccc3c(c2)CN(C2CCC(=O)NC2=O)C3=O)[C@H](C)C1 (some centres unmarked) [Compound 275],> 1
17,O=C1CCC(N2Cc3cc(NC(=O)N4CCCC5CC54)ccc3C2=O)C(=O)N1 (centres unmarked) [Compound 276],0.1 to 1
18,C[C@H]1CCCN(C(=O)Nc2ccc3c(c2)CN(C2CCC(=O)NC2=O)C3=O)C1 (some centres unmarked) [Compound 279],0.1 to 1

# The remaining lines, values ahead:
row,DC50 [µM],Structure (SMILES)
1,< 0.1,O=C1CCC(N2Cc3cc(NC(=O)N4Cc5cccc(F)c5C4)ccc3C2=O)C(=O)N1 (centres unmarked) [Compound 202]
2,< 0.1,O=C1CCC(N2Cc3cc(NC(=O)N4Cc5ccccc5C(F)(F)C4)ccc3C2=O)C(=O)N1 (centres unmarked) [Compound 204]
3,0.1 to 1,O=C1CCC(N2Cc3cc(NC(=O)N4Cc5ccccc5C(n5cccn5)C4)ccc3C2=O)C(=O)N1 (centres unmarked) [Compound 206]
4,< 0.1,CCC1c2ccccc2CN1C(=O)Nc1ccc2c(c1)CN(C1CCC(=O)NC1=O)C2=O (centres unmarked) [Compound 208]
5,< 0.1,O=C1CCC(N2Cc3cc(NC(=O)N4CCc5ccccc5C4c4ccccc4)ccc3C2=O)C(=O)N1 (centres unmarked) [Compound 211]
6,< 0.1,O=C1CCC(N2Cc3cc(NC(=O)N4CCc5cccc(C(F)(F)F)c5C4)ccc3C2=O)C(=O)N1 (centres unmarked) [Compound 212]
7,0.1 to 1,N#Cc1cccc2c1CN(C(=O)Nc1ccc3c(c1)CN(C1CCC(=O)NC1=O)C3=O)C2 (centres unmarked) [Compound 213]
8,< 0.1,O=C1CCC(N2Cc3cc(NC(=O)N4Cc5ccccc5CC4c4ccccc4)ccc3C2=O)C(=O)N1 (centres unmarked) [Compound 215]
9,< 0.1,O=C1CCC(N2Cc3cc(NC(=O)N4CC(c5ccccc5F)C4)ccc3C2=O)C(=O)N1 (centres unmarked) [Compound 217]
10,< 0.1,O=C1CCC(N2Cc3cc(NC(=O)N4C5CCCC4C5)ccc3C2=O)C(=O)N1 (centres unmarked) [Compound 218]
11,< 0.1,O=C1CCC(N2Cc3cc(NC(=O)N4CCCCC4C(F)(F)F)ccc3C2=O)C(=O)N1 (centres unmarked) [Compound 219]
12,< 0.1,O=C1CCC(N2Cc3cc(NC(=O)N4C[C@@H]5[C@H]6CC[C@H](C6)[C@@H]5C4)ccc3C2=O)C(=O)N1 (some centres unmarked) [Compound 220]
13,0.1 to 1,O=C1CCC(N2Cc3cc(NC(=O)N4CCC5CC54)ccc3C2=O)C(=O)N1 (centres unmarked) [Compound 221]
14,0.1 to 1,Cc1ccc(C2CCCN2C(=O)Nc2ccc3c(c2)CN(C2CCC(=O)NC2=O)C3=O)cn1 (centres unmarked) [Compound 224]
15,< 0.1,Cc1cccc(C2CN(C(=O)Nc3ccc4c(c3)CN(C3CCC(=O)NC3=O)C4=O)C2)c1 (centres unmarked) [Compound 226]
16,< 0.1,Cc1ccccc1C1CN(C(=O)Nc2ccc3c(c2)CN(C2CCC(=O)NC2=O)C3=O)C1 (centres unmarked) [Compound 227]
17,< 0.1,Cc1ccc(C2CN(C(=O)Nc3ccc4c(c3)CN(C3CCC(=O)NC3=O)C4=O)C2)cc1 (centres unmarked) [Compound 228]

row,DC50 [µM],Structure (SMILES)
1,0.1 to 1,O=C1CCC(N2Cc3cc(NC(=O)N4C[C@H]5CC4[C@H](c4ccccc4)C5)ccc3C2=O)C(=O)N1 (some centres unmarked) [Compound 230]
2,< 0.1,O=C1CCC(N2Cc3cc(NC(=O)N4CC(c5ccc(Cl)cc5)C4)ccc3C2=O)C(=O)N1 (centres unmarked) [Compound 231]
3,0.1 to 1,O=C1CCC(N2Cc3cc(NC(=O)N4CCCCC4C4CC4)ccc3C2=O)C(=O)N1 (centres unmarked) [Compound 232]
4,0.1 to 1,CC(C)C1(c2ccccc2)CN(C(=O)Nc2ccc3c(c2)CN(C2CCC(=O)NC2=O)C3=O)C1 (centres unmarked) [Compound 233]
5,< 0.1,CC(C)[C@]12C[C@H]1CN(C(=O)Nc1ccc3c(c1)CN(C1CCC(=O)NC1=O)C3=O)C2 (some centres unmarked) [Compound 235]
6,0.1 to 1,O=C1CCC(N2Cc3cc(NC(=O)N4CC5[C@@H](CCN5c5ccccc5)C4)ccc3C2=O)C(=O)N1 (some centres unmarked) [Compound 236]
7,< 0.1,O=C1CCC(N2Cc3cc(NC(=O)N4CCCC(C5CCC5)C4)ccc3C2=O)C(=O)N1 (centres unmarked) [Compound 248]
8,< 0.1,O=C1CCC(N2Cc3cc(NC(=O)N4CCCCC4c4ccccc4)ccc3C2=O)C(=O)N1 (centres unmarked) [Compound 253]
9,< 0.1,O=C1CCC(N2Cc3cc(NC(=O)N4CCCC5(CCC5)C4)ccc3C2=O)C(=O)N1 (centres unmarked) [Compound 255]
10,< 0.1,O=C1CCC(N2Cc3cc(NC(=O)N4CCC(c5ccccc5)C4)ccc3C2=O)C(=O)N1 (centres unmarked) [Compound 260]
11,< 0.1,Cc1ccccc1N1CCN(C(=O)Nc2ccc3c(c2)CN(C2CCC(=O)NC2=O)C3=O)CC1 (centres unmarked) [Compound 261]
12,< 0.1,O=C1CCC(N2Cc3cc(NC(=O)N4CCCC4c4ccccc4)ccc3C2=O)C(=O)N1 (centres unmarked) [Compound 264]
13,< 0.1,O=C1CCC(N2Cc3cc(NC(=O)N4CC(c5cccc(Cl)c5)C4)ccc3C2=O)C(=O)N1 (centres unmarked) [Compound 268]
14,< 0.1,O=C1CCC(N2Cc3cc(NC(=O)N4CC(c5ccc(F)cc5)C4)ccc3C2=O)C(=O)N1 (centres unmarked) [Compound 269]
15,< 0.1,C[C@@H]1[C@H]2CN(C(=O)Nc3ccc4c(c3)CN(C3CCC(=O)NC3=O)C4=O)C[C@@H]12 (some centres unmarked) [Compound 273]
16,< 0.1,O=C1CCC(N2Cc3cc(NC(=O)N4CCC(C5CC5)C4)ccc3C2=O)C(=O)N1 (centres unmarked) [Compound 277]
17,< 0.1,O=C1CCC(N2Cc3cc(NC(=O)N4CCC5(CCC5)C4)ccc3C2=O)C(=O)N1 (centres unmarked) [Compound 278]

# Reference: patent publication US20250171420A1 (Monte Rosa Therapeutics, Inc., priority 2022, published 2025)
